From patent US20240018158A1, “BRM TARGETING COMPOUNDS AND ASSOCIATED METHODS OF USE” (Prelude Therapeutics Incorporated, priority 2020, published 2024) come the findings set out here.

Structures are written as SMILES.

As a reminder, the DC50 is the concentration at which degradation of the target reaches its halfway point.

The target of one experiment is SMARCA2 (Homo sapiens (Human), UniProt P51531). As to the kind of experiment: SMARCA2 HiBiT degradation assay in HeLa cells. The format is cell-based. Conditions: 18 hours; for DC50: read-out: DC50 (SM2-HeLa) SMARCA2 degradation potency; for Dmax: read-out: Dmax % (SM2-HeLa) maximum SMARCA2 degradation within the concentrations tested. As for the experimental part: (§1) HiBiT peptide knock-in of SMARCA2 in LgBiT expressing HEK293T cells was performed by CRISPR-mediated tagging system as described Promega. The homozygous HiBiT knock-in on c-terminus SMARCA2 was confirmed by sanger sequence. SMARCA2-HiBiT knock-in Hela monoclonal cell (CS302366) and SMARCA4-HiBiT knock-in Hela monoclonal cell (CS3023226) were purchased from Promega. The heterozygous HiBiT-knock-in was confirmed by sanger sequence in both SMARCA2-HiBiT and SMARCA4-HiBiT monoclonal cells.
Chain of SMARCA2 (P51531 whole entry): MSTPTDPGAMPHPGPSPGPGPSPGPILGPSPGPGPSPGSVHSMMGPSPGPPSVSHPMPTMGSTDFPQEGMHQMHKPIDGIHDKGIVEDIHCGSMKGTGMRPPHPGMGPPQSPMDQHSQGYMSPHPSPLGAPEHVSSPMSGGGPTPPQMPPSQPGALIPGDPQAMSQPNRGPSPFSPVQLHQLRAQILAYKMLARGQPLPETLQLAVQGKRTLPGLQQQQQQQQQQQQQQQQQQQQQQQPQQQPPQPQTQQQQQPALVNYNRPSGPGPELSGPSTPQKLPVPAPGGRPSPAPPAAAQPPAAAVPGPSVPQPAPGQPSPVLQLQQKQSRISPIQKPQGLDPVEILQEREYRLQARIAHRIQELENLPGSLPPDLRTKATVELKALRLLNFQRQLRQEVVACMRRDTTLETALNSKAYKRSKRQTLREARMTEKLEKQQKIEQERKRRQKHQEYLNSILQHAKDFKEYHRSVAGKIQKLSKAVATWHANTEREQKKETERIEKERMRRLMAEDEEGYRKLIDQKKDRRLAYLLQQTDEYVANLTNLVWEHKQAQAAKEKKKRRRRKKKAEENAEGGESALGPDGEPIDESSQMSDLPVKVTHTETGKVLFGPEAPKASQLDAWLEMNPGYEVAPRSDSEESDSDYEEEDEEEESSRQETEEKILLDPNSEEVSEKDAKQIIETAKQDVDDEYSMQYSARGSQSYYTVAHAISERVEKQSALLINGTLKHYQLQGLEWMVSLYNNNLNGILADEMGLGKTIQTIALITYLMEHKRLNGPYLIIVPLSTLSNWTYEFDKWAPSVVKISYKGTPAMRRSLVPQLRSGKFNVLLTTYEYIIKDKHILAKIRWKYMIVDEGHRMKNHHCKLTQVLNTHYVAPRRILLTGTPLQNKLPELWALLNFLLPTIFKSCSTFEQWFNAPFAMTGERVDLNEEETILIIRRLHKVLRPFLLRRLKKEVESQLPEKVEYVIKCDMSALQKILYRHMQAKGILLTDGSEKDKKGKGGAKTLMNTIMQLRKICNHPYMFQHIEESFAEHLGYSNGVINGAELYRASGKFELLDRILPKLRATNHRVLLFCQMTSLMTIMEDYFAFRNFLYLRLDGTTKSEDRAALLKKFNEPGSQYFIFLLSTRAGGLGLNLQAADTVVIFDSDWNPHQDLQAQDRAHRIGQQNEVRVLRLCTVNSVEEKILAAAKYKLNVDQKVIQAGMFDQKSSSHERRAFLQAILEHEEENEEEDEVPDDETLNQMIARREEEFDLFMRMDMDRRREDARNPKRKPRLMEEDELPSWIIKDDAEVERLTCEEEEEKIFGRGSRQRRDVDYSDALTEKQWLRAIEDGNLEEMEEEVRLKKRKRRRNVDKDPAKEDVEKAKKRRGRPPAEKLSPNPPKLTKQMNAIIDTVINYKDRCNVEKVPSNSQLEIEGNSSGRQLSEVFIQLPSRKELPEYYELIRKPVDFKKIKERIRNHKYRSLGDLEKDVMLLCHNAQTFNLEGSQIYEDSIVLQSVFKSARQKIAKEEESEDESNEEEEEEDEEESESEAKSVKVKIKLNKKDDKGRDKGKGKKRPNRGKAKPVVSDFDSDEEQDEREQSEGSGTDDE
(§2) Dispense 10 μL aliquot of prepared Hela-SMARCA2-HiBiT or Hela-SMARCA4-HiBiT cells (1:1 ratio of cells:Trypan Blue (#1450013, Bio-Rad)) onto cell counting slide (#145-0011, Bio-Rad) and obtain cell density and cell viability using cell counter (TC20, Bio-Rad). Remove appropriate volume of resuspended cells from culture flask to accommodate 2500 cells/well @ 20 μL/well. Transfer Hela-HiBiT cells to 50 ml conical (#430290, Corning). Spin down at 1000 rpm for 5 min using tabletop centrifuge (SPINCHRON 15, Beckman). Discard supernatant and resuspend cell pellet in modified EMEM (#30-2003, ATCC) cell culture media containing 10% FBS (F2422-500ML, Sigma), and 1×Penicillin/Streptomycin (200 g/1) (30-002-CI, Corning) to a cell density of 125,000 cells/ml. Dispense 20 μL of resuspended Hela-HiBit cells per well in 384-well TC treated plate (#12-565-343, Thermo Scientific) using standard cassette (#50950372, Thermo Scientific) on Multidrop Combi (#5840310, Thermo Scientific) inside laminar flow cabinet. Dispense test compounds onto plates using digital liquid dispenser (D300E, Tecan). Incubate plates in humidified tissue culture incubator @37° C. for 18 hours. Add 20 ul of prepared Nano-Glo® HiBiT Lytic detection buffer (N3050, Promega) to each well of 384-well plate using small tube cassette (#24073295, Thermo Scientific) on Multidrop Combi, incubate @ RT for 30-60 min. Read plates on microplate reader (Envision 2105, PerkinElmer) using 384 well Ultra-Sensitive luminescence mode. Raw data files and compound information reports are swept into centralized data lake and deconvoluted using automated scripts designed by TetraScience, Inc. Data analysis, curve-fitting and reporting done in Dotmatics Informatics Suite using Screening Ultra module.

For a further experiment, the target named is SMARCA4 (Homo sapiens (Human), UniProt P51532). Nature of the experiment: SMARCA4 HiBiT degradation assay in HeLa cells. Type of experiment: cell-based. The note with it: 18 hours; for DC50: read-out: DC50 (SM4-HeLa) SMARCA4 degradation potency; for Dmax: HeLa, read-out: Dmax % (SM4-HeLa) maximum SMARCA4 degradation within the concentrations tested. The method, then:
as §1, §2
On the technique in general: HiBiT is a short tag that completes a luciferase, so light tracks the accessible tagged protein.

Chain of SMARCA4 (P51532 whole entry): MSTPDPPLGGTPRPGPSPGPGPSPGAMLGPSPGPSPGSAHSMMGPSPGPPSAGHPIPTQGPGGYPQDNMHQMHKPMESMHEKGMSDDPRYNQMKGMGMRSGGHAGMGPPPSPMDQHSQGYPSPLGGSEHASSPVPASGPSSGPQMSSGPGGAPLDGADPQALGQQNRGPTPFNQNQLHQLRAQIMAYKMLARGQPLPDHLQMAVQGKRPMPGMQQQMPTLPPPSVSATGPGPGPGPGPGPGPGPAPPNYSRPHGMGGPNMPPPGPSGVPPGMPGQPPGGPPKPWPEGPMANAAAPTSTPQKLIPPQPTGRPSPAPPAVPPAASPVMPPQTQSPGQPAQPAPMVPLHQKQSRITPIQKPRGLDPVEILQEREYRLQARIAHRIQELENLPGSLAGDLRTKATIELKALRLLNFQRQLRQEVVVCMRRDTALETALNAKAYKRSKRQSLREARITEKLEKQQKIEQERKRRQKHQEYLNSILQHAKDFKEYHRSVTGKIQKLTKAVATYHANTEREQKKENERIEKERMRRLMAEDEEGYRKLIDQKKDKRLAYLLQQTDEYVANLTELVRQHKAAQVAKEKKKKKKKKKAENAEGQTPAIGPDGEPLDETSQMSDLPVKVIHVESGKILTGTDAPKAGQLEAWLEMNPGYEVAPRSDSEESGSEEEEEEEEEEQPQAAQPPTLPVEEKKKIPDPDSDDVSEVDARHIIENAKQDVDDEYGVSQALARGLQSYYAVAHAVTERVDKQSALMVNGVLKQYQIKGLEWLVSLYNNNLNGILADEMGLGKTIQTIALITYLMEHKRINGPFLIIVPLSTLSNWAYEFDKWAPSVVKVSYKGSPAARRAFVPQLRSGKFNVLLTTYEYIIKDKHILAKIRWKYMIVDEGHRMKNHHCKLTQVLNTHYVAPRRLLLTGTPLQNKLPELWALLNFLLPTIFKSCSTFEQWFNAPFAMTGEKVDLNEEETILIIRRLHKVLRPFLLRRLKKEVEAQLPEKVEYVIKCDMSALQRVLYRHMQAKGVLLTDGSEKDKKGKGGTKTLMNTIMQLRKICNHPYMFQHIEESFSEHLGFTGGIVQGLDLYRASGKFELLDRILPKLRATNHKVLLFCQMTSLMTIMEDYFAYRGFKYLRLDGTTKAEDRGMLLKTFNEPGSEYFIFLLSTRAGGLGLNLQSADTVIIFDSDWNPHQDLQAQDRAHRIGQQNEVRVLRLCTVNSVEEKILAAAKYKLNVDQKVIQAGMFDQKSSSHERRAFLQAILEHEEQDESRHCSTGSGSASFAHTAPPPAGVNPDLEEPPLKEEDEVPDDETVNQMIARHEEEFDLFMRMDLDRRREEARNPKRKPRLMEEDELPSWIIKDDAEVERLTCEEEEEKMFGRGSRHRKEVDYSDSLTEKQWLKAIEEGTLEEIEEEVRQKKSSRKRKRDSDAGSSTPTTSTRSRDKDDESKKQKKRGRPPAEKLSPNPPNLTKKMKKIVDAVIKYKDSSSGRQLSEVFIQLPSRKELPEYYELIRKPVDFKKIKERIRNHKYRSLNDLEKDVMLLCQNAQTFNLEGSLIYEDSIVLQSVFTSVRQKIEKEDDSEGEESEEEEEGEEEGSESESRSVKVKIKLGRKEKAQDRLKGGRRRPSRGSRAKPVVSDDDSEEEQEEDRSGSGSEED

On to `Cc1ncsc1-c1ccc([C@H](C)NC(=O)[C@@H]2C[C@@H](O)CN2C(=O)[C@@H](c2cc(OCCN(C)C3CCC(N4CCN5c6cc(-c7ccccc7O)nnc6NC[C@H]5C4)CC3)no2)C(C)C)cc1` (stereo partly drawn) [Example 43, (2S,4R)-4-hydroxy-1-((R)-2-(3-(2-((4-((S)-2-(2-hydroxyphenyl)-5,6,6a,7,9,10-hexahydro-8H-pyrazino[1′,2′:4,5]pyrazino[2,3-c]pyridazin-8-yl)cyclohexyl)(methyl)amino)ethoxy)isoxazol-5-yl)-3-methylbutanoyl)-N-((S)-1-(4-(4-methylthiazol-5-yl)phenyl)ethyl)pyrrolidine-2-carboxamide], for which the 50% degradation concentration (DC50) on SMARCA2 and on SMARCA4 was < 100 nM each time. The Dmax on SMARCA2 and at SMARCA4 was > 75% throughout.

On to `Cc1ncsc1-c1ccc([C@H](C)NC(=O)[C@@H]2C[C@@H](O)CN2C(=O)[C@@H](c2cc(CCCN3CCCC(N4CCN5c6cc(-c7ccccc7O)nnc6NC[C@H]5C4)C3)no2)C(C)C)cc1` (stereo partly drawn) [Example 45, (2S,4R)-4-hydroxy-1-((2R)-2-(3-(3-(3-((S)-2-(2-hydroxyphenyl)-5,6,6a,7,9,10-hexahydro-8H-pyrazino[1′,2′:4,5]pyrazino[2,3-c]pyridazin-8-yl)piperidin-1-yl)propyl)isoxazol-5-yl)-3-methylbutanoyl)-N-((S)-1-(4-(4-methylthiazol-5-yl)phenyl)ethyl)pyrrolidine-2-carboxamide], for which, on SMARCA2, the DC50 was < 100 nM and the Dmax was > 75%. In addition, on SMARCA4, the DC50 was < 100 nM and the Dmax lay in the range of 50 to 75%.

As to `Cc1ncsc1-c1ccc([C@H](CO)NC(=O)[C@@H]2C[C@@H](O)CN2C(=O)C(c2cc(OCCN3CCC(CN4CCN5c6cc(-c7ccccc7O)nnc6NC[C@H]5C4)CC3)no2)C(C)C)cc1` (stereo partly drawn) [Example 46, (2S,4R)-4-hydroxy-N-((R)-2-hydroxy-1-(4-(4-methylthiazol-5-yl)phenyl)ethyl)-1-(2-(3-(2-(4-(((S)-2-(2-hydroxyphenyl)-5,6,6a,7,9,10-hexahydro-8H-pyrazino[1′,2′:4,5]pyrazino[2,3-c]pyridazin-8-yl)methyl)piperidin-1-yl)ethoxy)isoxazol-5-yl)-3-methylbutanoyl)pyrrolidine-2-carboxamide], the figures for the DC50 on SMARCA2 and on SMARCA4 were < 100 nM and 100 to 1000 nM, respectively. Also, the Dmax at SMARCA2 and on SMARCA4 was > 75% each time.

Take `Cc1ncsc1-c1ccc([C@H](C)NC(=O)[C@@H]2C[C@@H](O)CN2C(=O)[C@@H](c2cc(OCCN3CC4CC(N5CCN6c7cc(-c8ccccc8O)nnc7NC[C@H]6C5)CC4C3)no2)C(C)C)cc1` (stereo partly drawn) [Example 47, (2S,4R)-4-hydroxy-1-((2R)-2-(3-(2-(5-((S)-2-(2-hydroxyphenyl)-5,6,6a,7,9,10-hexahydro-8H-pyrazino[1′,2′:4,5]pyrazino[2,3-c]pyridazin-8-yl)hexahydrocyclopenta[c]pyrrol-2(1H)-yl)ethoxy)isoxazol-5-yl)-3-methylbutanoyl)-N-((S)-1-(4-(4-methylthiazol-5-yl)phenyl)ethyl)pyrrolidine-2-carboxamide]: on SMARCA2, the DC50 is < 100 nM and the Dmax is > 75%. For the same compound, at SMARCA4, the DC50 is < 100 nM and the Dmax was > 75%.

For the compound `Cc1ncsc1-c1ccc([C@H](C)NC(=O)[C@@H]2C[C@@H](O)CN2C(=O)[C@@H](c2cc(O[C@@H](C)CN3CCC(N4CCN5c6cc(-c7ccccc7O)nnc6NC[C@H]5C4)C3)no2)C(C)C)cc1` (stereo partly drawn) [Example 48, (2S,4R)-4-hydroxy-1-((2R)-2-(3-(((2S)-1-(3-((S)-2-(2-hydroxyphenyl)-5,6,6a,7,9,10-hexahydro-8H-pyrazino[1′,2′:4,5]pyrazino[2,3-c]pyridazin-8-yl)pyrrolidin-1-yl)propan-2-yl)oxy)isoxazol-5-yl)-3-methylbutanoyl)N-((S)-1-(4-(4-methylthiazol-5-yl)phenyl)ethyl)pyrrolidine-2-carboxamide], at SMARCA2, the DC50 is < 100 nM and the Dmax is > 75%. For the same compound, at SMARCA4, the “Dmax % (SM4-HeLa) maximum SMARCA4 degradation within the concentrations tested” value was “B (B = 50%< Dmax <=75%)” and the DC50 was < 100 nM.

Consider `Cc1ncsc1-c1ccc([C@H](C)NC(=O)[C@@H]2C[C@@H](O)CN2C(=O)[C@@H](c2cc(O[C@@H](C)CN3CCC(N4CCN5c6cc(-c7ccccc7O)nnc6NC[C@H]5C4)C3)no2)C(C)C)cc1` (stereo partly drawn) [Example 49, (2S,4R)-4-hydroxy-1-((2R)-2-(3-(((2S)-1-(3-((S)-2-(2-hydroxyphenyl)-5,6,6a,7,9,10-hexahydro-8H-pyrazino[1′,2′:4,5]pyrazino[2,3-c]pyridazin-8-yl)pyrrolidin-1-yl)propan-2-yl)oxy)isoxazol-5-yl)-3-methylbutanoyl)-N-((S)-1-(4-(4-methylthiazol-5-yl)phenyl)ethyl)pyrrolidine-2-carboxamide], for which, on SMARCA2, the “Dmax % (SM2-HeLa) maximum SMARCA2 degradation within the concentrations tested” value is on record as “A/A (A = Dmax >75%)” and the half-maximal degradation concentration (DC50) was < 100 nM. In addition, at SMARCA4, the “Dmax % (SM4-HeLa) maximum SMARCA4 degradation within the concentrations tested” value is “A/A (A = Dmax >75%)” and the DC50 was < 100 nM.

With `Cc1ncsc1-c1ccc([C@H](C)NC(=O)[C@@H]2C[C@@H](O)CN2C(=O)[C@@H](c2cc(OCCN3CCC(N4CCN5c6cc(-c7ccccc7O)nnc6NC[C@H]5C4)CC3C)no2)C(C)C)cc1` (stereo partly drawn) [Example 54, (2S,4R)-4-hydroxy-1-((2R)-2-(3-(2-(4-((S)-2-(2-hydroxyphenyl)-5,6,6a,7,9,10-hexahydro-8H-pyrazino[1′,2′:4,5]pyrazino[2,3-c]pyridazin-8-yl)-2-methylpiperidin-1-yl)ethoxy)isoxazol-5-yl)-3-methylbutanoyl)-N-((S)-1-(4-(4-methylthiazol-5-yl)phenyl)ethyl)pyrrolidine-2-carboxamide], at SMARCA2, the half-maximal degradation concentration (DC50) was < 100 nM and the Dmax was > 75%. Besides, on SMARCA4, the DC50 is < 100 nM and the Dmax is > 75%.

Turning to `Cc1ncsc1-c1ccc([C@H](C)NC(=O)[C@@H]2C[C@@H](O)CN2C(=O)[C@@H](c2cc(OC(C)CN3CCC(N4CCN5c6cc(-c7ccccc7O)nnc6NC[C@H]5C4)CC3)no2)C(C)C)cc1` (stereo partly drawn) [Example 57, (2S,4R)-4-hydroxy-1-((2R)-2-(3-((1-(4-((S)-2-(2-hydroxyphenyl)-5,6,6a,7,9,10-hexahydro-8H-pyrazino[1′,2′:4,5]pyrazino[2,3-c]pyridazin-8-yl)piperidin-1-yl)propan-2-yl)oxy)isoxazol-5-yl)-3-methylbutanoyl)-N-((S)-1-(4-(4-methylthiazol-5-yl)phenyl)ethyl)pyrrolidine-2-carboxamide], the DC50 on SMARCA2 was < 100 nM; on SMARCA4, 100 to 1000 nM. For the same compound, the Dmax on SMARCA2 was > 75%; on SMARCA4, 50 to 75%.

In the case of `CCC(CN1CCC(N2CCN3c4cc(-c5ccccc5O)nnc4NC[C@H]3C2)CC1)Oc1cc([C@H](C(=O)N2C[C@H](O)C[C@H]2C(=O)N[C@@H](C)c2ccc(-c3scnc3C)cc2)C(C)C)on1` (stereo partly drawn) [Example 60, (2S,4R)-4-hydroxy-1-(2-(3-((1-(4-((S)-2-(2-hydroxyphenyl)-5,6,6a,7,9,10-hexahydro-8H-pyrazino[1′,2′:4,5]pyrazino[2,3-c]pyridazin-8-yl)piperidin-1-yl)butan-2-yl)oxy)isoxazol-5-yl)-3-methylbutanoyl)-N-((S)-1-(4-(4-methylthiazol-5-yl)phenyl)ethyl)pyrrolidine-2-carboxamide], on SMARCA2, the half-maximal degradation concentration (DC50) was < 100 nM and the Dmax was > 75%. Besides, at SMARCA4, the half-maximal degradation concentration (DC50) is < 100 nM and the Dmax was in the range of 50 to 75%.

For the compound `CCC(CN1CCC(N2CCN3c4cc(-c5ccccc5O)nnc4NC[C@H]3C2)C1)Oc1cc(C(C(=O)N2C[C@H](O)C[C@H]2C(=O)N[C@@H](C)c2ccc(-c3scnc3C)cc2)C(C)C)on1` (stereo partly drawn) [Example 61, (2S,4R)-4-hydroxy-1-(2-(3-((1-(3-((S)-2-(2-hydroxyphenyl)-5,6,6a,7,9,10-hexahydro-8H-pyrazino[1′,2′:4,5]pyrazino[2,3-c]pyridazin-8-yl)pyrrolidin-1-yl)butan-2-yl)oxy)isoxazol-5-yl)-3-methylbutanoyl)-N-((S)-1-(4-(4-methylthiazol-5-yl)phenyl)ethyl)pyrrolidine-2-carboxamide], at SMARCA2, the DC50 is < 100 nM and the Dmax was > 75%. On SMARCA4, the “Dmax % (SM4-HeLa) maximum SMARCA4 degradation within the concentrations tested” value is listed as “B (B = 50%< Dmax <=75%)” and the half-maximal degradation concentration (DC50) is < 100 nM.
